Columns and labels:
Assay in all cases: biochemical
Parameters in all cases: DiscoverX KinomeScan competition binding assay across human kinases; per cent of control at 10 and 100 uM
TNIK = TNIK (Homo sapiens, UniProt Q9UKE5); settings: competition binding, % of control
Experimental: (§1) To validate our computational predictions, we employed a competition binding assay to detect the binding of levosimendan to 425 human kinases as well as its dose-response curve to RIOK1. The proprietary KinomeScan assay was performed by DiscoverX (Fremont, California, USA). The tests were performed at 10 μM and 100 μM concentrations of levosimendan, respectively. Assay results were reported as %control, calculated as follows: %control=(TestCompoundSignal−PositiveControlSignal)/(NegativeControlSignal−PositiveControlSignal)×100 KinomeScan assay across 452 human kinases verified our computational prediction (S1 Table). RIOK1 is one of the strongest inhibited kinases by levosimendan. The percentage control of RIOK1 is 15.0 and 0.0 under the treatment of 10 μM and 100 μM of levosimendan, respectively. […] The percentage controls of five kinases: FLT3, MAP2K5, PIP5K1A, GAK, and KIT are less than 30.0 under the treatment of both 10 μM and 100 μM of levosimendan. Both FLT3 and KIT are tyrosine protein kinases. Their inhibitors have recently been approved for the treatment of Acute Myeloid Leukemia and other types of cancers, but a combination therapy is needed to overcome rapidly emerged drug resistance, thus improve patients’ drug responses. Other kinases inhibited by levosimendan belong to serine/threonine protein kinase family (RIOK1, RIOK3, GAK, and MAP2K5) and lipid kinase family (PIP5K1A). […] As a result, levosimendan may modulate different cancer pathways from those by the tyrosine protein kinase inhibitors, and it could be a novel lead compound for a new anti-cancer therapy to overcome drug resistance of existing drugs or to target different types of cancers through polypharmacology or drug combination.

PIK3CA(I800L) = PIK3CA(I800L) (Homo sapiens, UniProt P42336, I800L); settings: competition binding, % of control; read-out: Percent Control (100 uM Levosimendan)
Experimental: as §1

YES = molecular target: T1, YES (Homo sapiens, UniProt P07947); settings: competition binding, % of control
T1 construct: gene YES1
T1 sequence (P07947 whole entry): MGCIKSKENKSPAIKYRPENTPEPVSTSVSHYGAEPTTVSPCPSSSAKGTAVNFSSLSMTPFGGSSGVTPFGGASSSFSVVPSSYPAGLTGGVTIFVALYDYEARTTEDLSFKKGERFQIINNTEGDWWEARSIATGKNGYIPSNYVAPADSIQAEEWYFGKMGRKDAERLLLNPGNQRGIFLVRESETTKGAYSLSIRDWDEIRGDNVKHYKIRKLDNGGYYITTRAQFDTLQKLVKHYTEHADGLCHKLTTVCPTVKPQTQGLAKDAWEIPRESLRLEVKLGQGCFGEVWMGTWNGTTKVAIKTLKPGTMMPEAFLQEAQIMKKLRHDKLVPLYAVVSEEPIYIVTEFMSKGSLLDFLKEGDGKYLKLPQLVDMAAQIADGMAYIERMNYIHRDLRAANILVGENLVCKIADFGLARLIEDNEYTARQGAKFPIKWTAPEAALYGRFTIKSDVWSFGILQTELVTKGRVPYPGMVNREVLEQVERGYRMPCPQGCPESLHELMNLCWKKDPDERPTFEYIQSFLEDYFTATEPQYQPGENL
Experimental: as §1

LIMK1 = LIMK1 (Homo sapiens, UniProt P53667); settings: competition binding, % of control; read-out: Percent Control (100 uM Levosimendan)
Experimental: as §1

CLK4 = CLK4 (Homo sapiens, UniProt Q9HAZ1); settings: competition binding, % of control; read-out: Percent Control (100 uM Levosimendan)
Experimental: as §1

[1] = molecular target: T2, TYK2(JH1domain-catalytic) (Homo sapiens, UniProt P29597); settings: competition binding, % of control
T2 construct: JH1domain-catalytic
T2 sequence (P29597 whole entry): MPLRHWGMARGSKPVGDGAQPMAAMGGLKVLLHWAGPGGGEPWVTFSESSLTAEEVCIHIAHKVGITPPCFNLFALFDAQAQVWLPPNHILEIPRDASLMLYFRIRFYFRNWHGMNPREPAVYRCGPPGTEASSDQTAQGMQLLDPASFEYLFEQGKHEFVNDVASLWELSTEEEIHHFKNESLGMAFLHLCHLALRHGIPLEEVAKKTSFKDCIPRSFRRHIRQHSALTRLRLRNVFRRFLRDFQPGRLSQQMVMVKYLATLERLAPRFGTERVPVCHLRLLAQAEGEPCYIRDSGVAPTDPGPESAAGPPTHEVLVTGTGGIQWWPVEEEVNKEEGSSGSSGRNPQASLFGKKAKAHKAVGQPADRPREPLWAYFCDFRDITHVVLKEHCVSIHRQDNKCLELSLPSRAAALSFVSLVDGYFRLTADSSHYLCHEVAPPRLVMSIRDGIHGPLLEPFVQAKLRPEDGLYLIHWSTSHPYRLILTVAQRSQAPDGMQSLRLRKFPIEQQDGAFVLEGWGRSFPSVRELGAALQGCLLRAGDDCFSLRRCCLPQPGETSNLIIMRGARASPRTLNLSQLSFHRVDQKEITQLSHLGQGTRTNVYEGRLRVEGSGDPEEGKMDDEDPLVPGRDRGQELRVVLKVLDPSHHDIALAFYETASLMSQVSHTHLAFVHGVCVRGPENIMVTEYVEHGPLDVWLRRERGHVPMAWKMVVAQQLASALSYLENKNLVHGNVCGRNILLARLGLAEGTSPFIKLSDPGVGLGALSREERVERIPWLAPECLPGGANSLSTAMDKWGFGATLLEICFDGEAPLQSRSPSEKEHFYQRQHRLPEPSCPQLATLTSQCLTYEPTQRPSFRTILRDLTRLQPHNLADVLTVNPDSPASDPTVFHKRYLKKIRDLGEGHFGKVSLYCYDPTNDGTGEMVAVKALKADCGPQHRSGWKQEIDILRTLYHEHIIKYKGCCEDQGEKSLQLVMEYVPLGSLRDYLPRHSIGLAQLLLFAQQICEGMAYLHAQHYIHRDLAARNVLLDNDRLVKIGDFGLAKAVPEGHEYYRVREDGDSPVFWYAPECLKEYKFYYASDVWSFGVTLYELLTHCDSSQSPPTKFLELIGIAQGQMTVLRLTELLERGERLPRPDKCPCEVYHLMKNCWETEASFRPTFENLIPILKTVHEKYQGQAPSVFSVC
Experimental: as §1

[2] = molecular target: T3, RSK1(Kin.Dom.1-N-terminal) (Homo sapiens, UniProt Q15418); settings: competition binding, % of control; read-out: Percent Control (100 uM Levosimendan)
T3 construct: gene RPS6KA1; Kin.Dom.1-N-terminal
Experimental: as §1

SIK = molecular target: T4, SIK (Homo sapiens, UniProt P57059); settings: competition binding, % of control; read-out: Percent Control (100 uM Levosimendan)
T4 construct: gene SIK1
Experimental: as §1

ALK(L1196M) = ALK(L1196M) (Homo sapiens, UniProt Q9UM73, L1196M); settings: competition binding, % of control; read-out: Percent Control (100 uM Levosimendan)
Experimental: as §1

CSNK1E = CSNK1E (Homo sapiens, UniProt P49674); settings: competition binding, % of control; read-out: Percent Control (100 uM Levosimendan)
Experimental: as §1

RIPK4 = RIPK4 (Homo sapiens, UniProt P57078); settings: competition binding, % of control; read-out: Percent Control (100 uM Levosimendan)
Experimental: as §1

AAK1 = AAK1 (Homo sapiens, UniProt Q2M2I8); settings: competition binding, % of control
Chain of AAK1 (Q2M2I8 whole entry): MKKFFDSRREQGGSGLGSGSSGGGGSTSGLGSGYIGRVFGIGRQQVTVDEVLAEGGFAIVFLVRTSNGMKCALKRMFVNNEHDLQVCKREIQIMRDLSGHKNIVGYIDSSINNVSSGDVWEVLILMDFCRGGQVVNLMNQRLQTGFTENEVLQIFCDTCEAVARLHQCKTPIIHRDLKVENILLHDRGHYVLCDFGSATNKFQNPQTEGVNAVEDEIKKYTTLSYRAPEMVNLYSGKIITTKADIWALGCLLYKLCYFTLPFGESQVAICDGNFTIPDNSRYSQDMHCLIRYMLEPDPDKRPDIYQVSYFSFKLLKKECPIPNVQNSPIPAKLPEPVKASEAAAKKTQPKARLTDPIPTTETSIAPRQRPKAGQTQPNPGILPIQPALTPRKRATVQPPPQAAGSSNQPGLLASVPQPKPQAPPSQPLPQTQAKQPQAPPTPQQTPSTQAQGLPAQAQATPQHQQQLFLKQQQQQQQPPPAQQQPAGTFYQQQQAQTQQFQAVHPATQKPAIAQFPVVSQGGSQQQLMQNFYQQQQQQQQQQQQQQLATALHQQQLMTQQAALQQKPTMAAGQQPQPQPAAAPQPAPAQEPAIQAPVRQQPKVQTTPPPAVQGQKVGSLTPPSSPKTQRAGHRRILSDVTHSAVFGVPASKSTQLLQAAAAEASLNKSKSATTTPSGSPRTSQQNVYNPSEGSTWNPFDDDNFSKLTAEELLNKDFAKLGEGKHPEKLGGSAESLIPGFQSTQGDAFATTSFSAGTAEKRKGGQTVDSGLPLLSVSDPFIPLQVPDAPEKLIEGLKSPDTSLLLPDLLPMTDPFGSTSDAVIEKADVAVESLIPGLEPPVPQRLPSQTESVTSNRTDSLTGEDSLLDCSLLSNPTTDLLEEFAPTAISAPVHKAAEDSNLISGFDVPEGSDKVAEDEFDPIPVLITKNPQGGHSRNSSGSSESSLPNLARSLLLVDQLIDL
Experimental: as §1

IRAK3 = IRAK3 (Homo sapiens, UniProt Q9Y616); settings: competition binding, % of control; read-out: Percent Control (100 uM Levosimendan)
Experimental: as §1

DAPK2 = DAPK2 (Homo sapiens, UniProt Q9UIK4); settings: competition binding, % of control; read-out: Percent Control (100 uM Levosimendan)
Experimental: as §1

RAF1 = RAF1 (Homo sapiens, UniProt P04049); settings: competition binding, % of control; read-out: Percent Control (100 uM Levosimendan)
Experimental: as §1

TYRO3 = TYRO3 (Homo sapiens, UniProt Q06418); settings: competition binding, % of control; read-out: Percent Control (100 uM Levosimendan)
Experimental: as §1

YANK1 = molecular target: T5, YANK1 (Homo sapiens, UniProt Q8WU08); settings: competition binding, % of control; read-out: Percent Control (100 uM Levosimendan)
T5 construct: gene STK32A
Experimental: as §1

FLT3 = FLT3 (Homo sapiens, UniProt P36888); settings: competition binding, % of control
Chain of FLT3 (P36888 whole entry): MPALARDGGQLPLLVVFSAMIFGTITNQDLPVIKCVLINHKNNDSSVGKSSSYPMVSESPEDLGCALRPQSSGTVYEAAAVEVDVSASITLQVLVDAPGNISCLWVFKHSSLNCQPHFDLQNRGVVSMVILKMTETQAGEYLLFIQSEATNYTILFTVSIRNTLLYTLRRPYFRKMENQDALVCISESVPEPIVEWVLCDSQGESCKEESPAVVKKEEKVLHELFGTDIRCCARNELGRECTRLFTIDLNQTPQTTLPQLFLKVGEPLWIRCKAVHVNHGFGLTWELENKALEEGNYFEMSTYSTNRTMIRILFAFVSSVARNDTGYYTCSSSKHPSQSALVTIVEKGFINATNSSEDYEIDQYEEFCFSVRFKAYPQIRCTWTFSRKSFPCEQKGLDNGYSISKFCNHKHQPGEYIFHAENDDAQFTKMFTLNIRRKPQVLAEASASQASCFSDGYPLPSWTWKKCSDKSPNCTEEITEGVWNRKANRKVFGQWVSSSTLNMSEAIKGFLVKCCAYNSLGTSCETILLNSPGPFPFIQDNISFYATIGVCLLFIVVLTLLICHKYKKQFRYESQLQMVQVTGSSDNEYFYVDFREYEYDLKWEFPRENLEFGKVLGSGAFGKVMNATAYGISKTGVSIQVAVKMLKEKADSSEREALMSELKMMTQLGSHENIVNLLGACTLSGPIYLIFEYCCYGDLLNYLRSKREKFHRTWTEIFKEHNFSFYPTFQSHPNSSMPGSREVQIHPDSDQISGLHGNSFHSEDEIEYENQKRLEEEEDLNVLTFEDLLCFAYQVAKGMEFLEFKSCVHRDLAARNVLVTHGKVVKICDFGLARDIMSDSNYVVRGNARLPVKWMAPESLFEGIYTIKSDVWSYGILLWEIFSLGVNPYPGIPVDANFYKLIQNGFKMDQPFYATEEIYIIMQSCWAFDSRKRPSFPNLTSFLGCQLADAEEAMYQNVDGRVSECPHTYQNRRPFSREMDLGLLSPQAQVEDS
Experimental: as §1

[3] = read-out: Percent Control (10 uM Levosimendan)
[4] = read-out: Percent Control (100 uM Levosimendan)

Chain of TNIK (Q9UKE5 whole entry): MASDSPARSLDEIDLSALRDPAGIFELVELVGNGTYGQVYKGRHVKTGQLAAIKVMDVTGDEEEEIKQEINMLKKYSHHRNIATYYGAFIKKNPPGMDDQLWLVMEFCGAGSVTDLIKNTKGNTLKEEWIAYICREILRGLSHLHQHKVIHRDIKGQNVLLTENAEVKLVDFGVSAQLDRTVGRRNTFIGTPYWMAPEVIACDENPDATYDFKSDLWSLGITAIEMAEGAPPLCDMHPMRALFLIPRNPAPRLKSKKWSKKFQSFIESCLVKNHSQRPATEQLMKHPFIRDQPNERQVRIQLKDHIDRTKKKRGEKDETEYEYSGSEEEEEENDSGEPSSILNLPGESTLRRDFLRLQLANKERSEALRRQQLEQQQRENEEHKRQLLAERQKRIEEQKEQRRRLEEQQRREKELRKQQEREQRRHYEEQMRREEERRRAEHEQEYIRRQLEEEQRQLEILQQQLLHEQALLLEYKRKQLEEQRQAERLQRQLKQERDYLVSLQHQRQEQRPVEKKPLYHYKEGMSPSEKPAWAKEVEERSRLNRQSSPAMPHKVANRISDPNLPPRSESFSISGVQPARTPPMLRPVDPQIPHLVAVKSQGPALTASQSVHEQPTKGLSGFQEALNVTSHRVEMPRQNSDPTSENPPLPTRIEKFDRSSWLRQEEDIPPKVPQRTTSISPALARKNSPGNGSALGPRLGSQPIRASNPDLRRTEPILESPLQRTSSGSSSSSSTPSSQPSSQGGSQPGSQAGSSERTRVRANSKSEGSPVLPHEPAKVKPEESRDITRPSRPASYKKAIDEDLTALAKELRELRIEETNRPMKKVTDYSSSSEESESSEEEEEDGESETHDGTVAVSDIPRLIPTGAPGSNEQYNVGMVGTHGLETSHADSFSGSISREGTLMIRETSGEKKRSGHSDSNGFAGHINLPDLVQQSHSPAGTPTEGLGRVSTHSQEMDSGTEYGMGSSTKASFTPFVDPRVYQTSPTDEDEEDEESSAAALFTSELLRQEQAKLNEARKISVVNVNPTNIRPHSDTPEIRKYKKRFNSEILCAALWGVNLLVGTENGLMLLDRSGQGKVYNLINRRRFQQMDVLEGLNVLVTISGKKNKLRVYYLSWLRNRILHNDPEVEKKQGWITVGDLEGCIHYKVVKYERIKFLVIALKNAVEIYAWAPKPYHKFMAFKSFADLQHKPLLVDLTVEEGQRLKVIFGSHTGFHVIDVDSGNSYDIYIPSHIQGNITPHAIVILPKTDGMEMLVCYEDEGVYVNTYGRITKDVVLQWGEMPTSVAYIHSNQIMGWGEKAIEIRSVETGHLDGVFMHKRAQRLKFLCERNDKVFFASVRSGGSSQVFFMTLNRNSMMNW

Q: What does the source list for `C[C@@H]1CC(=O)NN=C1c1ccc(NN=C(C#N)C#N)cc1` [levosimendan]?
A: remaining binding at 10 µM (TNIK; [3]): 77%; remaining binding at 100 µM (TNIK; [4]): 32%; remaining binding at 100 µM (PIK3CA(I800L)): 83%; remaining binding at 10 µM (YES; [3]): 97%; remaining binding at 100 µM (YES; [4]): 0%; remaining binding at 100 µM (LIMK1): 73%; remaining binding at 100 µM (CLK4): 89%; remaining binding at 10 µM [1, 3]: 85%; remaining binding at 100 µM [1, 4]: 27%; remaining binding at 100 µM [2]: 84%; remaining binding at 100 µM (SIK): 59%; remaining binding at 100 µM (ALK(L1196M)): 72%; remaining binding at 100 µM (CSNK1E): 63%; remaining binding at 100 µM (RIPK4): 99%; remaining binding at 10 µM (AAK1; [3]): 31%; remaining binding at 100 µM (AAK1; [4]): 24%; remaining binding at 100 µM (IRAK3): 100%; remaining binding at 100 µM (DAPK2): 73%; remaining binding at 100 µM (RAF1): 77%; remaining binding at 100 µM (TYRO3): 94%; remaining binding at 100 µM (YANK1): 94%; remaining binding at 10 µM (FLT3; [3]): 24%; remaining binding at 100 µM (FLT3; [4]): 0.9%

From PMC6576746, “Rational discovery of dual-indication multi-target PDE/Kinase inhibitor for precision anti-cancer therapy using structural systems pharmacology” (PLoS Computational Biology, 2019)
